Measurements: paper PMC10587737, “Dracorhodin targeting CMPK2 attenuates inflammation: A novel approach to sepsis therapy” (Clinical and Translational Medicine, 2023)

Experiments:
[1] = biological target: T1, purified CMPK2 protein (WT) (Homo sapiens, UniProt Q5EBM0); assay: Microscale thermophoresis (MST) binding to CMPK2
T1 construct: the N‐terminus was truncated by 22 amino acids; 6xHis (C); made in house; host or cells: FreeStyle 293-F cells (pTT5 vector)
T1 sequence (Q5EBM0 22-449): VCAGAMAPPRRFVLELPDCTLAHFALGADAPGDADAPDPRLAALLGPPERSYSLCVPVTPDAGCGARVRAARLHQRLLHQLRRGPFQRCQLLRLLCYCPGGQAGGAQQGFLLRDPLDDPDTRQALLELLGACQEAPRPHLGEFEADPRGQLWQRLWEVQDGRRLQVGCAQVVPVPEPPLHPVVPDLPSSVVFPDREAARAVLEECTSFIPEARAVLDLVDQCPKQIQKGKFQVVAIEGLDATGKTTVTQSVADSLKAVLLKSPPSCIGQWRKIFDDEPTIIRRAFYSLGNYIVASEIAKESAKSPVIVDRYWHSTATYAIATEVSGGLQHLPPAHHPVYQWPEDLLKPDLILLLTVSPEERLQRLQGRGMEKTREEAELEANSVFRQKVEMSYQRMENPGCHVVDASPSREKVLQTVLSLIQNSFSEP
Method: The MST assay is an emerging technique used to quantitatively elucidate binding. The binding parameter between CMPK2 and DP was measured using MST on a Monolith NT.115 system (Germany). CMPK2 was fluorescently labeled with the Monolith NT Protein Labeling Kit RED (L018, NanoTemper Technologies GmbH, Munich, Germany) according to the manufacturer's instructions. The Monolith NT.115 system was used with Monolith NT.115 standard capillaries (M0-[…]). MST assay buffer was used to dilute the labeled CMPK2 to 2 μM. Sixteen dilutions (1:1) of the ligand were prepared using the same buffer, starting at a concentration of 10 μM. An equivalent volume of the labeled CMPK2 was added to each of the dilutions and loaded into Monolith NT.115 standard treated capillaries (Nano Temper Technologies), which were used to measure the MST trace at a temperature of 27°C. The experimental parameters were adjusted to medium MST power and 40% LED/excitation power. The binding and dissociation constants (Kd) were evaluated and calculated using M0-Affinity analysis software version 2.1.3 (Nano Temper Technologies) for the ligand.

[2] = system: BMDMs; assay: CCK-8 cytotoxicity assay; assay type: cell-based, mouse; details: DP 5–80 μM
Method: To detect the viability of cells, a cell counting kit 8 (CCK-8) assay was performed. BMDMs were seeded at 1×10^6 cells/ml in a 96-well plate and incubated overnight at 37℃. Then, we treated the cells with different concentrations of DP (0-160 μM) for 24 h, added CCK-8 reagent to the cell medium and incubated the cells for 1 h. Then, the optical density was measured at a wavelength of 450 nm.

[3] = system: siCmpk2/dsCmpk2-transduced BMDMs; assay: Inflammasome readouts in siCmpk2- or dsCmpk2-transduced BMDMs; assay type: cell-based, mouse
Method: BMDMs were plated in 6-well plates at a density of 1.5×10^6 cells per well and then transfected with 150 nM siRNA using Lipofectamine RNAiMAX according to the manufacturer’s guidelines (Invitrogen). siRNA sequences were chemically synthesized by GenePharma, and the negative control siRNA was also from GenePharma. The siRNA sequences were as follows: sicmpk2 5’-[…]-3’.
Full-length human CMPK2 was cloned and inserted into a pcDNA3.1(+) vector (Invitrogen) for expression in mouse BMDMs. An HA tag was placed after the C-terminal of CMPK2. Mouse BMDMs were transfected using Fugene HD Transfection Reagent (Promega) with the CMPK2 plasmid. BMDMs were plated in 6-well plates at a density of 1.5×10^6 cells per well and then transfected with 6 μg dsDNA using FuGENE according to the manufacturer’s guidelines (Promega).

[4] = biological target: T2, CMPK2 lysine residues (Homo sapiens, UniProt Q5EBM0); assay: Quantitative lysine reactivity profiling (dimethyl labelling)
T2 construct: the N‐terminus was truncated by 22 amino acids; 6xHis (C); made in house; host or cells: FreeStyle 293-F cells (pTT5 vector)
T2 sequence (Q5EBM0 22-449): T1 sequence (Q5EBM0 22-449)
Method: The extent of DP intervention on lysine residues of CMPK2 conformational changes was visualized and the correlation between this effect and the inhibitory potency of the inhibitor was assessed. […] Finally, after the concentration of the active small molecule was fixed, the concentration of the target protein CMPK2 was tested for lysine labelling reactivity according to a gradient of 0.025, 0.05 and 0.1 mg/mL. The range of concentrations used to investigate the effect of small‐molecule ligands on CMPK2 activity was 0.1–150 μM. Each data point contains three biological replicates.
Stable isotope labeling reactions were performed in the active state of the target protein samples. In short, the sample was split into two identical portions. One portion was incubated with DP, and the other was incubated with DMSO vehicle for 30 min at 37℃. Then, mass-differentiated isotopic labeling was performed with heavy (30 mM CD2O, 5 mM NaBH3CN) and light (30 mM CH2O, 5 mM NaBH3CN) labeling reagents. Active isotopic labeling was allowed to proceed for the indicated time, and this experiment allowed incubation for 15 min at 25℃ in the dark. Add 5 M NH4AC and react for 10 min at room temperature to stop the labeling reaction. […] The digested peptide samples were collected by centrifugation, lyophilized, and stored at -80℃ for quantitative proteomic analysis.

[5] = biological target: CMPK2 mutant at K282; assay: ADP-GLO kinase activity of CMPK2 K282 mutant; assay type: biochemical, human
Method: Human CMPK2 and K265, K282 and K320 mutated CMPK2 cDNA were cloned and inserted into the pTT5 vector, and the constructed plasmid was amplified by the DH5α strain. The C‐terminus of the cDNA was fused with a 6× His tag, and the N‐terminus was truncated by 22 amino acids (Figure 1B–F and Supporting Information Figure S5A,B). When the free‐style 293‐F cells reached the proper density, approximately 1 mg of expression plasmid was premixed with 3 mg polyethylenimine in UltraFectin medium and incubated prior to transfection. This mixture was then added to the appropriate amount of fresh cell culture medium, incubated for 30 min and collected after 48 h.
CMPK2 activity was measured by the ADP‐GLO kinase assay according to the guidelines specified in the manufacturer's instructions. In the activity assay, the amount of ADP formed in the CMPK2 reaction was equal to the ATP consumption and proportional to the increase in luminescence generated in the luciferase reaction, which is the experimental principle shown in Figure 1I.

[6] = biological target: T3, CMPK2 (Homo sapiens, UniProt Q5EBM0); assay: Ultrafiltration-affinity mass spectrometry screening (FC, CMPK2 vs BSA); assay type: binding; parameters: the N‐terminus was truncated by 22 amino acids; 6xHis (C); made in house; host or cells: FreeStyle 293-F cells (pTT5 vector)
T3 sequence (Q5EBM0 22-449): T1 sequence (Q5EBM0 22-449)
Method: The purified kinase CMPK2 was incubated with the six cocktails for 30 min at 37°C in a suitable buffer solution. In the compound cocktail, each compound concentration was 1 μM, and the concentration of the kinase CMPK2 was set at 5 μM. Each of the above incubation solutions was added to a 0.5 mL 10 kDa ultrafiltration tube (Amicon μltra‐0.5 10K Centrifugal Filter Devices, Millipore), and four experimental replicates were conducted for each CMPK2 and BSA pair. The 10 kDa ultrafiltration tube was centrifuged with the incubation solution at 13 000 × g for 20 min at 4°C. Centrifugation was stopped when the solution volume was approximately 100 μL, and then the mixture was washed five times with cold ammonium acetate (150 mM, pH 7.5). For affinity selection, 100 μL of the mixture was transferred after centrifugation and rinsed into a new eppendorf tube. […] The protein precipitate was discarded and the liquid was concentrated with a N2 stream. The residue was re‐dissolved in 50% methanol before injection. BSA samples were processed in a manner parallel to that of CMPK2 samples.
Sample measurement was detected by using an UHPLC instrument (Shimadzu) combined with a Triple TOF 5600^+ MS (SCIEX). Chromatographic separation was conducted with an Acquity UPLC BEH C18 column (1.7 μm, 2.1 × 100 mm, Waters) at a temperature maintained at 40°C and a flow rate of 0.3 mL/min, with mobile phases of water–0.1% formic acid (A) and acetonitrile (B). The linear gradient elution profile was as follows: 0−2 min, 5% B; 2−12 min, 5−30% B; 12−25 min, 30−90% B; 25−30 min, 90% B; and re‐equilibration for 5 min. Subsequently, the gradient was recovered to the initial conditions at the final 1 min. Whether it was a test sample or a quality control (QC) sample, each injection volume was 5 μL.
Briefly, the chromatographic peaks of each bound ligand were extracted using PeakView with identification criteria of precise mass measurement deviation and retention time tolerance of 5 ppm and 0.1 min, respectively. The MS response of each ligand was represented with the integrated peak area extracted by the corresponding extract ion chromatogram. The effective hits were selected on the basis of fold change (FC) value ≥ 2, p value < .05 and cyclic voltammetry (CV) ≤ 30% and were identified as candidate ligands of CMPK2. By extracting the m/z of individual standards from the acquired MS/MS spectrum, the decimal point of RT was used to distinguish the ambiguous compound peaks in the cocktails.
The experimental samples were injected into a UHPLC‐Q‐TOF‐MS system. First, total ion chromatograms (TIC) reflected the general overview of all samples (Supporting Information Figure S2A). […] Among the groups, each sample with a CV more than 30% was considered an abnormal sample and was not considered in the subsequent statistical analysis. In addition, the p value of each sample between the groups was calculated by MetaboAnalyst 5.0, and the significance of differences was determined. In the ultrafiltration‐affinity mass spectrometry profiling, we calculated FC, which is defined as the ratio of the MS response between the compound detected in the CMPK2 and BSA incubation system (Supporting Information Figure S2C,D). […] To select small‐molecule ligands with strong affinity, we determined the screening criteria to be FC ≥ 2. Affinity MS analysis generated a set of raw data, and the compounds that met the pre‐judgment criteria (FC ≥ 2, p < .05) were selected as compound hits (Supporting Information Figure S2).

## COc1c2ccc(-c3ccccc3)oc-2cc(=O)c1C [compound 73, Dracohodin perochlorate]
[1]
  Kd: 350 ± 34.9 nM
[2]
  cell viability: no significant change
[3]; CMPK2-overexpressing BMDMs
  effect on TNF-α in supernatant: negligible
  inhibitory effect on IL-1β: reversed
[3]; WT/siCmpk2 BMDMs, DP 12 or 1 h, ATP/Nigericin
  release of TNF-α in supernatant: no significant change
[3]; siCmpk2-transduced BMDMs, different concentrations of DP
  ASC oligomerization: not significantly altered
[4]; residues K245, K249, K282, K320, K324, K293, K265, K251, K277 and K368
  isotope-labelling ratios of lysine residues: lower than 0.5
[4]; residues K393, K433 and K409, DP–CMPK2 co-incubation
  isotope-labelling ratios of lysine residues: approximately 1
[5]
  kinase activity of the mutant at K282: slight inhibitory effect
[6]; affinity mass spectrometry competition, Figure S3C
  binding between dUMP and CMPK2: interfered
[6]; negative ion mode, ratio of MS response CMPK2 vs BSA
  FC Negative: 3.00
[6]; positive ion mode, ratio of MS response CMPK2 vs BSA
  FC Positive: 4.32
